Reference: patent US8173710B2, “Bicyclic sphingosine 1-phosphate analogs” (University of Virginia Patent Foundation, priority 2006, dated 2012)

How the values were obtained:
[1] = Heart rate assay; format: in vivo; details: IV dosing, 3 mg/kg, 1 hour post dosing, vehicle 2% cyclodextrin, conscious mice, FIG. 11
Method: Mice were dosed with compound VIII, FTY720 (intravenous, 3 mg/kg) or vehicle (2% hydroxypropyl beta-cyclodextrin) and heart rate measured at 1 hour post dosing. Heart rate was captured in unrestrained, conscious animals using the ECGenie™ system. The results are illustrated in FIG. 11.

[2] = molecular target: T1, human S1P1 receptor (Homo sapiens, UniProt P21453); experiment: GTPγS-35 binding assay (broken cell), S1P1; format: biochemical; details: FIG. 7, compared with S1P
T1 construct: expressed in transfected cells; host or cells: HEK293T cells (crude microsomes)
Method: (§1) This assay illustrates agonist activation of G protein coupled receptors (GPCRs) in isolation. The assay forces expression concomitantly of a recombinant GPCR (e.g., the S1P1-5 receptor) and each of the three subunits (typically, α-2, β-1, or γ-2) of a heterotrimeric G protein in a HEK293T cell by transfecting the cell with four plasmid DNAs encoding the respective proteins. About 60 hours after transfection the cells are harvested, opened, and the nucleus discarded. The crude microsome is prepared from the remainder. Agonist (e.g., S1P) stimulation of the receptor-G protein complex on the microsomes results in the exchange of GTP for GDP on the α-subunit in a dose-dependent manner. The GTP-bound a-subunit is detected using a GTP analog (GTPγS-35), which is a radionuclide (sulfur-35) labeled phosphothioate that is not hydrolyzed to GDP. The microsomes with the adherent G proteins are collected by filtration and the bound GTPγS-35 quantified in a liquid scintillation counter. The assay yields relative potency (EC50 values) and maximum effect (efficacy, Emaxa Antagonist activity is detected as rightward shifts in the agonist dose-response curve in the presence of a fixed amount of antagonist. If the antagonist behaves competitively, the affinity of the receptor/antagonist pair (K1) can be determined. […]

[3] = molecular target: T2, S1P3 receptor (Homo sapiens, UniProt Q99500); experiment: GTPγS-35 binding assay (broken cell), S1P3; format: biochemical
T2 construct: expressed in transfected cells; host or cells: HEK293T cells (crude microsomes)
Method: as §1

T2 sequence (Q99500 whole entry): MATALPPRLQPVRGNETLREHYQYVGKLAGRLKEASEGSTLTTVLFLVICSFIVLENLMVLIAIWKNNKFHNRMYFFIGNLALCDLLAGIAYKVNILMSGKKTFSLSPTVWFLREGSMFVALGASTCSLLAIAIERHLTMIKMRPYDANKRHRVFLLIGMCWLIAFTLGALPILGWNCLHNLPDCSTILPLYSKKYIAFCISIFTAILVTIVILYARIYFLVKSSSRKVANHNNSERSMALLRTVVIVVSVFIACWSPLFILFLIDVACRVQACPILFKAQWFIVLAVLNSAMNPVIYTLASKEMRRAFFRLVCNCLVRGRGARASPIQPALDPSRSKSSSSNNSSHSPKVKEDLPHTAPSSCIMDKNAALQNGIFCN
T2 sequence (P04899 whole entry partner): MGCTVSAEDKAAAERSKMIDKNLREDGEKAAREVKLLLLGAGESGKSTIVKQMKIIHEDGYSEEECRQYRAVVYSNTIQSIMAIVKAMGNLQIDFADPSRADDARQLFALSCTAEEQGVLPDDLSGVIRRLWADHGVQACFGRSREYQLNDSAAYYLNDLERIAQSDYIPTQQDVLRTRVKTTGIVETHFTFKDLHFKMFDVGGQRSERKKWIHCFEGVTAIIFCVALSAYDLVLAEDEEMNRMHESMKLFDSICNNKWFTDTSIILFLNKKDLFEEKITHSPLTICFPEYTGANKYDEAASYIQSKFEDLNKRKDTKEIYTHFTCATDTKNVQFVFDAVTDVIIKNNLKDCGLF
T2 sequence (P62873 whole entry partner): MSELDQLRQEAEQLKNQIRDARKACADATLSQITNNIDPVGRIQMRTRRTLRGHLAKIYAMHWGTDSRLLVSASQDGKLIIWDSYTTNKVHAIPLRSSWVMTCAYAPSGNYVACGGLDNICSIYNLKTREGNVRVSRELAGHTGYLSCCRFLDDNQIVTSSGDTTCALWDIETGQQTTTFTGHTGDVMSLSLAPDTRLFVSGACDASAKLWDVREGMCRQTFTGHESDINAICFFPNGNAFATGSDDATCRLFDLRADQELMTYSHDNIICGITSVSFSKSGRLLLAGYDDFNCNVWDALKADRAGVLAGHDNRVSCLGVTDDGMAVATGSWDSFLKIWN
T2 sequence (P59768 2-68 partner limits assumed): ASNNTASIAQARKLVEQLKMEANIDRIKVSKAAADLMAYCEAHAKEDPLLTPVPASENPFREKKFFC
T1 sequence (P21453 whole entry): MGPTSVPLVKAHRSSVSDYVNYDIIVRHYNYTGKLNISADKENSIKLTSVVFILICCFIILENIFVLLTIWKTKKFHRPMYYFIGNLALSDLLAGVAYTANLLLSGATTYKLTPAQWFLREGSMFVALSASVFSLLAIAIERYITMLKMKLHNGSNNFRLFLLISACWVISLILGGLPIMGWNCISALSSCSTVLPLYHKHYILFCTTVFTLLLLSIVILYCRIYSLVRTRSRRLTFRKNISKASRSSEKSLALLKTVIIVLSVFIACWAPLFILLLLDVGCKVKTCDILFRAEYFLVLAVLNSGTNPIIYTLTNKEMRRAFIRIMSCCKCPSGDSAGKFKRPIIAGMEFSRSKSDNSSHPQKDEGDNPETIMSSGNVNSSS
T1 sequence (P04899 whole entry partner): as the sequence (P04899 whole entry partner) above
T1 sequence (P62873 whole entry partner): as the sequence (P62873 whole entry partner) above
T1 sequence (P59768 2-68 partner limits assumed): as the sequence (P59768 2-68 partner limits assumed) above

potency at S1P1 relative to S1P [2] | agonist activity at the S1P3 receptor ([3]; FIG. 8, XXVI and XXVII tested as mixture of phosphorylated forms of compound VIII) | potency at S1P3 relative to S1P ([3]; compared with S1P) | SMILES | effect on the heart rate of mice [1]
– | – | – | CCCCCCCCc1ccc2c(c1)CCC(C(N)(CO)CO)C2 (stereo not shown) [VIII, 2-Amino-2-(6-octyl-1,2,3,4-tetrahydro-naphthalen-2-yl)-propane-1,3-diol] | no effect
more potent | low potency, partial agonists | less potent | CCCCCCCCc1ccc2c(c1)CCC(C(N)(COP(=O)(O)O)COP(=O)(O)O)C2 (stereo not shown) [XXVII, Phosphoric acid mono-[2-amino-2-(6-octyl-1,2,3,4-tetrahydro-naphthalen-2-yl)-3-phosphonooxypropyl] ester] | –
